Columns and labels:
[1] = test system: Fibronectin; experiment: ELISA of fibronectin in culture supernatant of human dermal fibroblasts; format: cell-based; conditions: normal human dermal fibroblasts, 72 hours, weighted to viable cells
Procedure: (§1) An ELISA is an immunological assay commonly used to measure presence and abundance of a specific proteins (antibodies, antigens, proteins and glycoproteins) in biological samples. In this case ELISAs are being used to quantify the expression of dermal extracellular proteins collagen-1, decorin, fibronectin and collagen IV. The quantity of collagen I is evaluated via the quantity of PIP (“carboxU-terminal pro-peptide of procollagen type I”) which is a peptide fragment resulting from the enzymatic degradation of procollagen present outside the fibroblast in the culture supernatant medium.
(§2) Normal human dermal fibroblasts cells (HDFs) were cultured in contact with the tetrapeptides of the present invention, or composition without the peptide (negative control), for 72 hours. Thereafter the cultured supernatants were removed, and the quantity of dermal extracellular proteins determined using an ELISA assay for the protein of interest. For the ELISA quantification, cell viability was calculated using Hoechst staining allowing the quantity of dermal proteins to be weighted to the number of viable cells.
(§3) The effect of XXGD tetrapeptides on ECM protein expression by fibroblasts as measured by ELISA (columns 1 to 2) versus a tetrapeptide not conforming to the XXGD structure (column 3) are presented in the table below (table 1). Results are expressed as % increase or decrease versus the negative control.

[2] = test system: Collagen I (PIP); experiment: ELISA of collagen I (via PIP) in culture supernatant of human dermal fibroblasts; format: cell-based; conditions: normal human dermal fibroblasts, 72 hours, weighted to viable cells
Procedure: as §1, §2
The quantity of collagen I is evaluated using the quantity of PIP (“carboxU-terminal pro-peptide of procollagen type I”) which is a peptide fragment resulting from the enzymatic degradation of procollagen present outside the fibroblast in the culture supernatant medium.
as §3

[3] = test system: Fibrillin-1; experiment: Immunofluorescence of Fibrillin-1 expression by HDF cells; format: cell-based, human; conditions: primary HDF cells, 5 days
Procedure: Immunofluorescence relies on the use of antibodies to label a specific protein with a fluorescent dye such as fluorescein isothiocyanate (FITC). In the following experiments, indirect immunofluorescence is used where a primary antibody first recognises and attaches to the specific protein, in this case fibrillin-1, and then a secondary antibody conjugated with FITC directed against the primary antibody is used for detection.
Fibrillin-1 expression was determined using immunofluorescence. Primary human dermal fibroblast (HDF) cells were purchased from Promo Cell and came from a donor. Cells were grown in wells of 96 well black walled clear bottomed plates (Peirce, Thermo Fisher). Cells were cultured in HDF media (PromoCell) supplemented with Basic Fibroblast Growth Factor (recombinant human), 1 ng/ml and Insulin 5 μg/ml. […]
The antibody binding to Fibrillin-1 fibres was visualised using a Nikon Eclipse 100 microscope fluorescence setting using an excitation lens for fluorescein isothiocyanate (FITC). […] ImageJ software was used to quantify the Fibrillin-1 fibre abundance and coverage in each image using a threshold of 235 measuring the fibre density.
Results are expressed as a percentage increase in fibrillin abundance compared to untreated control. […]

[4] = test system: Decorin; experiment: ELISA of decorin in culture supernatant of human dermal fibroblasts; format: cell-based; conditions: normal human dermal fibroblasts, 72 hours, weighted to viable cells
Procedure: as §1, §2, §3

[5] = test system: Collagen IV; experiment: ELISA of collagen IV in culture supernatant of human dermal fibroblasts; format: cell-based; conditions: normal human dermal fibroblasts, 72 hours, weighted to viable cells
Procedure: as §1, §2, §3

Row | Substance | Fibronectin expression, % increase or decrease versus the negative control ([1]; peptide 15 ppm) | Collagen I (PIP) expression, % increase or decrease versus the negative control ([2]; peptide 15 ppm) | Fibrillin-1, percentage increase in fibrillin abundance compared to untreated control ([3]; peptide 4 ppm (concentration with highest yield)) | Decorin expression, % increase or decrease versus the negative control ([4]; peptide 15 ppm) | Collagen IV expression, % increase or decrease versus the negative control ([5]; peptide 15 ppm) | Fibrillin-1, percentage increase in fibrillin abundance compared to untreated control ([3]; peptide 10 ppm (concentration with highest yield)) | Fibronectin expression, % increase or decrease versus the negative control ([1]; peptide 12.5 ppm) | Collagen I (PIP) expression, % increase or decrease versus the negative control ([2]; peptide 12.5 ppm) | Decorin expression, % increase or decrease versus the negative control ([4]; peptide 12.5 ppm) | Collagen IV expression, % increase or decrease versus the negative control ([5]; peptide 12.5 ppm)
1 | Pal-AKGD-OH | +112% | +26% | +116% | +39% | +40% | – | – | – | – | –
2 | Pal-GYIL-OH [reference compound] | −38% | +18% | – | −13% | +6% | +3% | – | – | – | –
3 | Pal-EKGD-OH | – | – | – | – | – | – | +114% | +101% | +43% | +73%

— US20230414476A1, “TETRAPEPTIDE AND COMPOSITIONS COMPRISING TETRAPEPTIDES” (THE BOOTS COMPANY, priority 2020, published 2023)
